Converted amounts (≈) assume the structure as drawn. Read-outs that look alike come from different tables or passages of the source. Marks after values point to notes of the source that are not given here.
Assays:
[1] = tested on: Pseudomonas aeruginosa (MDR 301, PSA, V2); experiment: MIC-assay, Mueller-Hinton broth with G-block alginate, 384-well, OD600; details: Pseudomonas aeruginosa, Table 8; V2; G-block (OligoCF-5/20) 10%
MDR Pseudomonas strains = experiment: MIC assay of Example 1, summary over the MDR Pseudomonas strains; assay type: cell-based, Pseudomonas aeruginosa
V22 6056 Acinetobacter = experiment: MIC assay, CAMHB with alginate oligomer, no visible growth; assay type: cell-based, Acinetobacter lwoffii; details: Table 5, V22 MDR Acin. lwoff
[2] = tested on: Burkholderia cepacia (LMG18941, ATCC-BAA-246); experiment: MIC-assay, Mueller-Hinton broth with G-block alginate, 384-well, OD600
[3] = tested on: V19 non MDR Acinetobacter baumannii; experiment: MIC assay, CAMHB with M-block alginate oligomer, no visible growth; assay type: cell-based; details: Table 7, V19 non MDR Acin. baum
Description: The study described in Example 1 was repeated with the following strains of Acinetobacter baumannii, antibiotics and M-block alginate oligomer in place of OligoG CF-5/20 as detailed in Table 7. The M-block oligomer is 100% M with a DPn of 15 to 18,

[4] = tested on: Acinetobacter baumannii (Egypt, V9); experiment: MIC-assay, Mueller-Hinton broth with G-block alginate, 384-well, OD600
[5] = tested on: Klebsiella pneumoniae KP05 506 from India (V3); experiment: MIC assay, CAMHB with alginate oligomer, no visible growth; assay type: cell-based; details: for MIC: Klebsiella pneumoniae, Table 1, V3 KP05 506, read-out: MIC
[6] = tested on: PA01 Pseudomonas aeruginosa ATCC 15692; experiment: MIC assay, two-fold antibiotic dilutions in CAMHB with alginate oligomer, no visible growth; assay type: cell-based; details: Pseudomonas aeruginosa, ATCC15692, Table 1, PA01, read-out: MIC
[7] = tested on: V12 5725 (Wales) Klebsiella pneumoniae; experiment: MIC assay, CAMHB with alginate oligomer, no visible growth; assay type: cell-based; details: Table 5, V12 MDR Kleb pneu
[8] = tested on: Pseudomonas aeruginosa MDR 301 from Poland (V2); experiment: as above; assay type: cell-based; details: Pseudomonas aeruginosa, Table 1, V2 MDR 301 PA, read-out: MIC
[9] = tested on: Pseudomonas aeruginosa (R22, PSA, V1); experiment: MIC-assay, Mueller-Hinton broth with G-block alginate, 384-well, OD600
[10] = tested on: Acinetobacter lwoffii (6056, V22); experiment: as above
[11] = tested on: Acinetobacter lwoffii (Egypt, V10); experiment: as above
[12] = tested on: Pseudomonas aeruginosa ATCC 39324, mucoid type strain (R79); experiment: MIC assay, CAMHB with alginate oligomer, no visible growth; assay type: cell-based; details: Pseudomonas aeruginosa, ATCC39324, Table 1, R79, read-out: MIC
[13] = Table 9, G-block (OligoCF-5/20) 0%
[14] = Table 9, G-block (OligoCF-5/20) 2%
[15] = Table 9, G-block (OligoCF-5/20) 6%
[16] = Table 9, G-block (OligoCF-5/20) 10%

C[C@H]1[C@H](NC(=O)/C(=N\OC(C)(C)C(=O)O)c2csc(N)n2)C(=O)N1S(=O)(=O)O [Aztreonam]
MIC [1]: 0.0625 µg/mL (≈ 0.144 µM)
effectiveness when used in combination with the alginate oligomers (MDR Pseudomonas strains): more effective
MIC (V22 6056 Acinetobacter; Acinetobacter, OligoCF-5/20 0G, read-out: MIC): 256 µg/mL (≈ 588 µM)
MIC (V22 6056 Acinetobacter; OligoCF-5/20 +2% G): 128^† μg/ml
MIC (V22 6056 Acinetobacter; OligoCF-5/20 +6% G): 64^† μg/ml
MIC (V22 6056 Acinetobacter; OligoCF-5/20 +10% G): 32^† μg/ml
MIC ([2]; ATCCBAA246|LMG18941, Table 8, G-block (OligoCF-5/20) 0%): > 16 µg/mL
MIC ([2]; ATCCBAA246|LMG18941, Table 8, G-block (OligoCF-5/20) 2%): > 16 µg/mL
MIC ([2]; ATCCBAA246|LMG18941, Table 8, G-block (OligoCF-5/20) 6%): > 16 µg/mL
MIC ([2]; ATCCBAA246|LMG18941, Table 8, G-block (OligoCF-5/20) 10%): > 16 µg/mL
MIC ([3]; M-block oligomer 0M): 64 µg/mL (≈ 147 µM)
MIC ([3]; M-block oligomer +2% M): 32 µg/mL (≈ 73.5 µM)
MIC ([3]; M-block oligomer +6% M): 8 µg/mL (≈ 18.4 µM)
MIC ([3]; M-block oligomer +10% M): 8 µg/mL (≈ 18.4 µM)
MIC [4, 13]: > 16 µg/mL
MIC [4, 14]: > 16 µg/mL
MIC [4, 15]: > 16 µg/mL
MIC [4, 16]: > 16 µg/mL
effectiveness in conjunction with alginate oligomers ([5]; Example 1, KP05 506): more effective
MIC ([5]; OligoCF-5/20 0G): 2050 µg/mL (≈ 4700 µM)
MIC ([5]; OligoCF-5/20 +2% G): 2050 µg/mL (≈ 4700 µM)
MIC ([5]; OligoCF-5/20 +6% G): 512 µg/mL (≈ 1180 µM)
MIC ([5]; OligoCF-5/20 +10% G): 256 µg/mL (≈ 588 µM)
MIC ([6]; OligoCF-5/20 0G): 8 µg/mL (≈ 18.4 µM)
MIC ([6]; OligoCF-5/20 +2% G): 16 µg/mL (≈ 36.7 µM)
MIC ([6]; OligoCF-5/20 +6% G): 4 µg/mL (≈ 9.19 µM)
MIC ([6]; OligoCF-5/20 +10% G): 2 µg/mL (≈ 4.59 µM)
MIC ([7]; Klebsiella pneumoniae, OligoCF-5/20 0G, read-out: MIC): 256 µg/mL (≈ 588 µM)
MIC ([7]; OligoCF-5/20 +2% G): 512^‡ μg/ml
MIC ([7]; OligoCF-5/20 +6% G): 128^† μg/ml
MIC ([7]; OligoCF-5/20 +10% G): 64^† μg/ml
MIC ([8]; OligoCF-5/20 0G): 64 µg/mL (≈ 147 µM)
MIC ([8]; OligoCF-5/20 +2% G): 16 µg/mL (≈ 36.7 µM)
MIC ([8]; OligoCF-5/20 +6% G): 8 µg/mL (≈ 18.4 µM)
MIC ([8]; OligoCF-5/20 +10% G): 8 µg/mL (≈ 18.4 µM)
MIC ([9]; Table 8, G-block (OligoCF-5/20) 6%): 0.0625 µg/mL (≈ 0.144 µM)
MIC ([9]; Table 8, G-block (OligoCF-5/20) 10%): 0.0312 µg/mL (≈ 0.0718 µM)
MIC [10, 13]: 64 µg/mL (≈ 147 µM)
MIC [10, 14]: 32 µg/mL (≈ 73.5 µM)
MIC [10, 15]: 16 µg/mL (≈ 36.7 µM)
MIC [10, 16]: 4 µg/mL (≈ 9.19 µM)
MIC [11, 13]: 8 µg/mL (≈ 18.4 µM)
MIC [11, 14]: 4 µg/mL (≈ 9.19 µM)
MIC [11, 15]: 2 µg/mL (≈ 4.59 µM)
MIC [11, 16]: 1 µg/mL (≈ 2.3 µM)
MIC ([12]; OligoCF-5/20 0G): 2 µg/mL (≈ 4.59 µM)
MIC ([12]; OligoCF-5/20 +2% G): 2 µg/mL (≈ 4.59 µM)
MIC ([12]; OligoCF-5/20 +6% G): < 1 µg/mL
MIC ([12]; OligoCF-5/20 +10% G): < 1 µg/mL

— patent publication US9801901B2, “Alginate oligomers for use in overcoming multidrug resistance in bacteria” (priority 2009, dated 2017)
